The target of data set [1] is NK1 (Homo sapiens, UniProt P25103). The data set can be described thus: Signal transduction (ST), intracellular Ca++ (FLIPR), functional NK1 antagonistic activity. The class given is cell-based. The settings on record: antagonist, read-out: NK1 pIC50 (converted). The procedure, abridged: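 Confluent cells were loaded with 2 μM Fluo3 for 1 h at 37° C, then washed into Krebs buffer pH 7.4 with 1.25 mM CaCl2 and 2.5 mM probenecid. Antagonists were preincubated 20 min at RT before agonist addition. Peak Ca++ transients were read by FLIPR, with EC50 or IC50 from sigmoidal non-linear regression.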
Sequence of NK1 (P25103 whole entry): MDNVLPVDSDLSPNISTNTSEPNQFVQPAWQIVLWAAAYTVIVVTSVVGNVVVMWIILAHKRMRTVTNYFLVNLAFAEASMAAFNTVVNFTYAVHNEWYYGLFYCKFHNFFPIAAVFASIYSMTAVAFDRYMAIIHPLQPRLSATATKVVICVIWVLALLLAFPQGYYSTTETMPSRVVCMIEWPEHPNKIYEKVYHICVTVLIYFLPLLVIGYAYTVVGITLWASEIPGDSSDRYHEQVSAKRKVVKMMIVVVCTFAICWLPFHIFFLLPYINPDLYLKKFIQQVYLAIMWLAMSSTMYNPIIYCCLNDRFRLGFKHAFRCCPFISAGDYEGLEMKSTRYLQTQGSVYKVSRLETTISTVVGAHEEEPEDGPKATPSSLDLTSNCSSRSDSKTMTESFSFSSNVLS

The target in data set [2] is T1, NK2 (Homo sapiens, UniProt P21452).
T1 sequence (P21452 1-398): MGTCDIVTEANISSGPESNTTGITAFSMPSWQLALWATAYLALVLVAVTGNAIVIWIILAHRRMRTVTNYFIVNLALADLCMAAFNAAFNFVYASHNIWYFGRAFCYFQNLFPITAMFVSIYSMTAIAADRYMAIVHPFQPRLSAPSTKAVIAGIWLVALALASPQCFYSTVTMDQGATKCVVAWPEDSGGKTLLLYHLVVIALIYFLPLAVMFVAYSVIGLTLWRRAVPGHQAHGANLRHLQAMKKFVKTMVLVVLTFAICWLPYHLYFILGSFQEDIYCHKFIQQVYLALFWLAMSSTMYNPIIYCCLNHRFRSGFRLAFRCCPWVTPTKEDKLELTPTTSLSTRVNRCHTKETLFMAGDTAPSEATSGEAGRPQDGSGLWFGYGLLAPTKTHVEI
The data set can be described thus: Signal transduction (ST), intracellular Ca++ (FLIPR), NK2. Type of data set: cell-based. The settings on record: antagonist, read-out: NK2 pIC50 (converted).

Data set [3] addresses T2, NK3 (Homo sapiens, UniProt P29371).
T2 sequence (P29371 1-465): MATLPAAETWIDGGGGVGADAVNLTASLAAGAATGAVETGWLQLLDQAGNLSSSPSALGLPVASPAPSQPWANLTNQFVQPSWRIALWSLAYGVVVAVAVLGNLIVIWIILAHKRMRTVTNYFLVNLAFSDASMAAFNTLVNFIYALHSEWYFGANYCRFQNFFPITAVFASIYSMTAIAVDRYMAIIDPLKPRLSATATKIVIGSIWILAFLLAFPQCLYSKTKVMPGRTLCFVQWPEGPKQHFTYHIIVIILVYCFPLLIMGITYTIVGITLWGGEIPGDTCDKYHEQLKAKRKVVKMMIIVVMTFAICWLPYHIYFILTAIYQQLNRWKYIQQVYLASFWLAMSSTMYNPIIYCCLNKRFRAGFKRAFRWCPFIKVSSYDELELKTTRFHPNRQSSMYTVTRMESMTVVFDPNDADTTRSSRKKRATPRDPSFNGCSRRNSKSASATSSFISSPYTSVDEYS
The data set is described as follows: Signal transduction (ST), intracellular Ca++ (FLIPR), NK3. The class given is cell-based. The settings on record: antagonist, read-out: NK3 pIC50 (converted).

Counter-ions that a name gives are not always drawn. Some results are limits rather than exact numbers.

The term melting point denotes the temperature, or range, at which the solid turns liquid. On to `O=C(c1cc(C(F)(F)F)cc(C(F)(F)F)c1)N1CCC(N2CCC3(CCN(Cc4ccccc4)CC3)CC2)CC1Cc1ccccc1` (stereo not shown) (as salt: hydrochloric acid salt) [Compound 5], for which the melting point is 183 °C.
Molecule `CC(C)(C)OC(=O)N1CCC2(CC1)CCN(C1CCN(C(=O)c3cc(C(F)(F)F)cc(C(F)(F)F)c3)C(Cc3ccc(Cl)c(Cl)c3)C1)CC2` (stereo not shown) [Compound 130] gave a melting point of 80 °C.
Consider `O=C(c1cc(C(F)(F)F)cc(C(F)(F)F)c1)N1CCC(N2CCC3(CC2)CCN(S(=O)(=O)c2cccs2)CC3)CC1Cc1ccccc1` (stereo not shown) (as salt: oxalate) [Compound 92], for which the melting point amounted to 132 °C.
In the case of `O=C(c1cc(C(F)(F)F)cc(C(F)(F)F)c1)N1CC[C@H](N2CCC3(CCN(C(=O)C45CC6CC(CC(C6)C4)C5)CC3)CC2)C[C@H]1Cc1ccccc1` [Compound 60], the figures for the IC50 in data set [1], in data set [2] and in data set [3] were 240 nM, 4680 nM and 4680 nM, respectively.
With `O=C(C1CC1)N1CCC2(CCN(C[C@H]3CCN(C(=O)c4cc(C(F)(F)F)cc(C(F)(F)F)c4)[C@H](Cc4ccccc4)C3)CC2)CC1` [Compound 179], the IC50 in data set [1] was 58.9 nM; in data set [2], greater than 10000 nM; in data set [3] it was greater than 10000 nM.
On to `O=C(C=Cc1ccco1)N1CCC2(CC1)CCN([C@H]1CCN(C(=O)c3cc(C(F)(F)F)cc(C(F)(F)F)c3)[C@H](Cc3ccccc3)C1)CC2` [Compound 84], for which the IC50 was 282 nM in data set [1], 7240 nM in data set [2] and greater than 10000 nM in data set [3].
The like results for `CC(C)(C)C1CCC(C(=O)N2CCC3(CC2)CCN([C@H]2CCN(C(=O)c4cc(C(F)(F)F)cc(C(F)(F)F)c4)[C@H](Cc4ccccc4)C2)CC3)CC1` (stereo partly shown) [Compound 40] were, in that order, 977 nM, greater than 10000 nM and greater than 10000 nM.
Turning to `CC1CCCCC1C(=O)N1CCC2(CC1)CCN([C@@H]1CCN(C(=O)c3cc(C(F)(F)F)cc(C(F)(F)F)c3)[C@H](Cc3ccccc3)C1)CC2` (stereo partly shown) [Compound 39], the IC50 in data set [1] is 85.1 nM; in data set [2], 4790 nM; in data set [3] it was 5370 nM.
Consider `O=C(c1ccccn1)N1CCC2(CC1)CCN([C@H]1CCN(C(=O)c3cc(C(F)(F)F)cc(C(F)(F)F)c3)[C@H](Cc3ccccc3)C1)CC2` [Compound 49], for which the IC50 in data set [1] was 107 nM; in data set [2], 3980 nM; in data set [3], greater than 10000 nM.
In the same order, the values of `O=C1CC2(CCN1Cc1ccoc1)CCN([C@@H]1CCN(C(=O)c3cc(C(F)(F)F)cc(C(F)(F)F)c3)[C@H](Cc3ccccc3)C1)CC2` [Compound 198] are 339 nM, 4790 nM and greater than 10000 nM.
In the same order, the values of `O=C(C1CC1)N1CCC2(CC1)CCN(C(=O)[C@H]1CCN(C(=O)c3cc(C(F)(F)F)cc(C(F)(F)F)c3)[C@H](Cc3ccccc3)C1)CC2` [Compound 186] are 17 nM, 5010 nM and 5370 nM.
The like results for `Cc1nc2ccc(C(=O)N3CCC4(CC3)CCN([C@H]3CCN(C(=O)c5cc(C(F)(F)F)cc(C(F)(F)F)c5)[C@H](Cc5ccccc5)C3)CC4)cc2[nH]1` [Compound 67] were, in that order, 57.5 nM, 9770 nM and greater than 10000 nM.
For `O=C(C1CC1)N1CCC2(CC1)CCN([C@H]1CCN(C(=O)c3cc(C(F)(F)F)cc(C(F)(F)F)c3)[C@H](Cc3ccc(Cl)c(Cl)c3)C1)CC2` [Compound 131], the results for the IC50 in data set [1], in data set [2] and in data set [3] were 17.4 nM, 776 nM and 1410 nM, respectively.
With `O=C(c1cc(C(F)(F)F)cc(C(F)(F)F)c1)N1CC[C@H](CN2CCC3(CCN(Cc4ccccc4)CC3)CC2)C[C@H]1Cc1ccccc1` [Compound 178], the results for the IC50 in data set [1], in data set [2] and in data set [3] were 437 nM, 4900 nM and greater than 10000 nM, respectively.
Turning to `O=C(C1CC1)N1CCC2(CC1)CCN(C1CCN(C(=O)c3cc(C(F)(F)F)cc(C(F)(F)F)c3)C(Cc3ccccc3)C1)CC2` (stereo not shown) [Compound 3], the melting point worked out at 160 °C. Moreover, the IC50 in data set [1] is 37.2 nM. Also, the IC50 in data set [2] is 1100 nM. In data set [3], the IC50 is 1510 nM.
In the case of `Cc1cccc(S(=O)(=O)N2CCC3(CCN([C@H]4CCN(C(=O)c5cc(C(F)(F)F)cc(C(F)(F)F)c5)[C@H](Cc5ccccc5)C4)CC3)CC2)c1` [Compound 104], the results for the IC50 in data set [1], in data set [2] and in data set [3] were 64.6 nM, roughly 4570 nM and 1950 nM, respectively.
